# From patent publication US9896423B2, “Deuterium substituted 1-[2-(2,4-dimethyl-phenylsulfanyl)-phenyl]piperazine compound or derivatives thereof, and pharmaceutical composition and use thereof” (Jiangsu Jibeier Pharmaceutical Co. Ltd., priority 2014, dated 2018)
# Values joined by “and” are separate entries in the source; they are usually repeats but may differ in a detail not shown here. Equal entries are not always repeated. Structures can show the parent of a compound that is named as a salt. Where two headings read alike, the source gives them in different places.
# Key:
# Male SD rats = assay: Rats swimming test; type: in vivo; details: for effect on length of time that the rats stopped swimming vs blank control: 14 days; for Duration without Move within 5 min: rats swimming, gavage 14 days, n = 10, x ± s
# Description: The following method is used for testing the antidepression effect of the compound of the present application. ICR mice or SD rats, gavaged for two successive weeks, were subjected to mice swimming test, mice tail suspension test and rats swimming test. See below for details of the tests and results.
# Male SD rats weighing 200 to 220 g were used and they were fed with sterilized standard feed. The medicaments were the same as those in the mice tail suspension test, but the dosage administered to rats was half of that to mice.
# Drug solution preparation: Since the dosage applied on rats was 1 ml/100 g body weight, the medicament solutions used in this test had the same concentrations as those used on mice.
# The apparatus was the same as that in the […].
# The rats were fasted for 4 hours, put in a round glass tank (ø 18 cm×h 40 cm, with water of 15 cm depth and at a temperature of 25° C.), and were allowed to swim for 15 min. One tank accommodated one rat at a time. The tank was refilled with clean water for another rat after one rat finished swimming. The rats were dried with a hot-air blower after swimming.
# The forty rats were divided into 4 groups, each of which has 10 rats, according to the Excel random grouping.
# The medicaments were correspondingly administered 1 ml/100 g body weight by gavage, once a day, to the animals in each test group for 14 successive days. The rat swimming test was performed one hour later after the last administration.
# The data was given as “average±standard deviation” (x±s). One-way analysis of variance (ANOVA) was used for data difference statistics. Differences among the groups were determined by P<0.05.
# [1] = Pharmacokinetic test in rats, gavage administration; type: in vivo, SD rats
# Method: The preferred compound of the present disclosure was assessed in rats for its pharmacokinetic profile.
# SD rats, male and female, weighing 150 to 250 g
# Mobile phase: 10 mM ammonium formate aqueous solution:methanol=15:85
# The ionization source was electrospray ionization source. The detection mode was positive mode. Multiple reaction monitoring (MRM) was used as the scanning mode. The ion reaction for the quantitative analysis was the following: m/z was 305.2\150.0 for XX, and 256.1\167.1 for diphenhydramine (the internal standard).
# XX or YY was orally administered with single dose of 20 mg/kg to six SD rats, one half of which were male and the other half was female. XX or YY was dissolved in 10% hydroxypropyl-β-cyclodextrin. […]
# After the blood collection, the tubes were immediately gently turned upside down at least five times to ensure sufficient mixing, and placed on ice. Heparin was added for anticoagulation. The samples were centrifuged at 8000 rpm for 5 min to separate serum from erythrocyte. The serum was transferred with a pipettor to 2 mL polypropylene (PP) tubes, which were marked with the name of the compound and the time points, and stored in a refrigerator at −40° C. before LC-MS analysis. Samples with high concentrations were diluted with rat blank plasma.
# 2.5 μL of Meth-H2O and 5 μL of the internal standard solution (20 ng/mL, IS) were added to 50 μL of the plasma. Subsequently, 150 μL of methanol was added to the mixture to precipitate protein and the samples were then centrifuged at 13000 rpm for 5 min. The upper organic phase was taken out, filtrated with a 0.22 μM microporous membrane, and 2 μL of the sample was injected for the LC-MS analysis.
smiles,measurement,setting,value
"[2H]C([2H])([2H])c1ccc(Sc2ccccc2N2CCNCC2)c(C([2H])([2H])[2H])c1 [XX, 1-{2-[2,4-bis(trideuteriomethyl)phenylsulfanyl]phenyl}piperazine hydrobromic acid salt]",effect on length of time that the rats stopped swimming vs blank control,Male SD rats; 0.75 mg/kg gavage,showed a tendency to shorten
same,effect on length of time that the rats stopped swimming vs blank control,Male SD rats; 1.5 mg/kg gavage,markedly shortened
same,Duration without Move within 5 min,Male SD rats; 0.75 mg/kg,242.4 ± 43.2 s
same,Duration without Move within 5 min,Male SD rats; 1.5 mg/kg,226.2 ± 43.2 s
same,Concentrations in Plasma of Rats after Oral Administration,"[1]; 20 mg/kg oral, 10 min (Table 5: 0.167 h) after administration, individual rats 1-6",10.6 ng/mL and 7 ng/mL and 7.88 ng/mL and 24.8 ng/mL and 15.6 ng/mL and 16.2 ng/mL
same,Concentrations in Plasma of Rats after Oral Administration,"[1]; 20 mg/kg oral, 1 h, individual rats 1-6",68.4 ng/mL and 83.6 ng/mL and 55.2 ng/mL and 107.6 ng/mL and 144 ng/mL and 115.8 ng/mL
same,Concentrations in Plasma of Rats after Oral Administration,"[1]; 20 mg/kg oral, 1.5 h, individual rats 1-6",91.6 ng/mL and 77.4 ng/mL and 120.8 ng/mL and 142.8 ng/mL and 109.6 ng/mL
same,Concentrations in Plasma of Rats after Oral Administration,"[1]; 20 mg/kg oral, 2 h, individual rats 1-6",86.6 ng/mL and 77.8 ng/mL and 118.4 ng/mL and 119.6 ng/mL and 108 ng/mL
same,Concentrations in Plasma of Rats after Oral Administration,"[1]; 20 mg/kg oral, 3 h, individual rats 1-6",65.8 ng/mL and 53.8 ng/mL and 85.8 ng/mL and 77.6 ng/mL and 71.2 ng/mL
same,Concentrations in Plasma of Rats after Oral Administration,"[1]; 20 mg/kg oral, 4 h, individual rats 1-6",60.8 ng/mL and 56 ng/mL and 61.2 ng/mL and 85.6 ng/mL and 63.4 ng/mL
same,Concentrations in Plasma of Rats after Oral Administration,"[1]; 20 mg/kg oral, 6 h, individual rats 1-6",48.7 ng/mL and 36.8 ng/mL and 42.8 ng/mL and 54.6 ng/mL and 35.5 ng/mL
same,Concentrations in Plasma of Rats after Oral Administration,"[1]; 20 mg/kg oral, 8 h, individual rats 1-6",22.5 ng/mL and 20.9 ng/mL and 31.7 ng/mL and 25.1 ng/mL and 18.9 ng/mL
same,Concentrations in Plasma of Rats after Oral Administration,"[1]; 20 mg/kg oral, 10 h, individual rats 1-6",17.9 ng/mL and 15.5 ng/mL and 20.3 ng/mL and 14.9 ng/mL and 13.5 ng/mL
same,Concentrations in Plasma of Rats after Oral Administration,"[1]; 20 mg/kg oral, 12 h, individual rats 1-6",8.22 ng/mL and 6.78 ng/mL and 11.3 ng/mL and 7.08 ng/mL and 7.2 ng/mL
same,Concentrations in Plasma of Rats after Oral Administration,"[1]; 20 mg/kg oral, 14 h, individual rats 1-6",4.01 ng/mL and 3.56 ng/mL and 7.32 ng/mL and 4.43 ng/mL and 3.11 ng/mL and 3.19 ng/mL
same,Concentrations in Plasma of Rats after Oral Administration,"[1]; 20 mg/kg oral, 24 h, individual rats 1-6",1.46 ng/mL and 0.571 ng/mL and 0.368 ng/mL and 1.32 ng/mL and 0.365 ng/mL and 0.389 ng/mL
same,bioavailability,"[1]; both sexes, SD, rat, plasma, po, 20 mg/kg, rats, oral 20 mg/kg vs iv 2 mg/kg, individual rats 1-6, read-out: F %",11%
same,AUC(0-t),"[1]; both sexes, SD, rat, plasma, po, 20 mg/kg, rats, oral 20 mg/kg, individual rats 1-6, read-out: AUC0-1",524 ng·h/mL
same,AUC(0-inf),"[1]; both sexes, SD, rat, plasma, po, 20 mg/kg, rats, oral 20 mg/kg, individual rats 1-6, read-out: AUC0-∞",532 ng·h/mL
same,Cmax,"[1]; both sexes, SD, rat, plasma, po, 20 mg/kg, rats, oral 20 mg/kg, individual rats 1-6, read-out: Cmax",78.6 ng/mL
same,MRT inf,"[1]; both sexes, SD, rat, plasma, po, 20 mg/kg, rats, oral 20 mg/kg, individual rats 1-6, read-out: MRT0-∞",5.62 h
same,AUC(0-t),"[1]; both sexes, SD, rat, plasma, po, 20 mg/kg, rats, oral 20 mg/kg, n = 6, read-out: AUC0-1, Mean ± SD",583 ± 82.7 ng·h/mL
same,AUC(0-inf),"[1]; both sexes, SD, rat, plasma, po, 20 mg/kg, rats, oral 20 mg/kg, n = 6, read-out: AUC0-∞, Mean ± SD",586 ± 82.8 ng·h/mL
same,Cmax,"[1]; both sexes, SD, rat, plasma, po, 20 mg/kg, rats, oral 20 mg/kg, n = 6, read-out: Cmax, Mean ± SD",105 ± 26.5 ng/mL
same,MRT inf,"[1]; both sexes, SD, rat, plasma, po, 20 mg/kg, rats, oral 20 mg/kg, n = 6, read-out: MRT0-∞, Mean ± SD",4.93 ± 0.58 h
same,half-life,"[1]; both sexes, SD, rat, plasma, po, 20 mg/kg, rats, oral 20 mg/kg, n = 6, read-out: t1/2, Mean ± SD (converted)",2.92 ± 0.8 h
same,concentration at 10 min,"[1]; both sexes, Sprague-Dawley, rat, plasma, oral, 20 mg/kg, 20 mg/kg oral, 10 min (Table 5: 0.167 h), mean of 6 rats, read-out: Concentrations in Plasma of Rats after Oral Administration, Mean ± SD",13.7 ± 6.65 ng/mL
same,concentration at 0.5 h,"[1]; both sexes, Sprague-Dawley, rat, plasma, oral, 20 mg/kg, 20 mg/kg oral, 0.5 h, mean of 6 rats, read-out: Concentrations in Plasma of Rats after Oral Administration, Mean ± SD",62.9 ± 19.6 ng/mL
